Measurements published in patent US11395822B2, “Methods for treating Huntington's disease” (PTC Therapeutics, Inc., priority 2017, dated 2022).

test system: Endogenous Huntingtin Protein; test: Endogenous Huntingtin Protein Assay (ELISA-based MSD electrochemiluminescence); type: cell-based; details: MSD plates coated with MW1 (expanded polyglutamine) or MAB2166 capture antibody
Description: Compounds of Formula (I) were tested using the Meso Scale Discovery (MSD) Assay provided in International Application No. PCT/US2016/066042, filed on Dec. 11, 2016 and claiming priority to U.S. Provisional Application U.S. 62/265,652 filed on Dec. 10, 2015, and published as International Publication No. WO 2017/100726 on Jun. 15, 2017, the entire contents of which are incorporated herein by reference.
The Endogenous Huntingtin Protein assay used in Example 1 was developed using the ELISA-based MSD electrochemiluminescence assay platform.
Endogenous Huntingtin Protein Assay
Meso Scale Discovery (MSD) 96-well or 384-well plates were coated overnight at 4° C. with MW1 (expanded polyglutamine) or MAB2166 monoclonal antibody (for capture) at a concentration of 1 μg/mL in PBS (30 μL per well). Plates were then washed three times with […] wash buffer (0.05% Tween-20 in PBS) and blocked (100 μL blocking buffer; 5% BSA in PBS) for 4-5 hours at room temperature with rotational shaking and then washed three times with wash buffer.
Samples (25 μL) were transferred to the antibody-coated MSD plate and incubated overnight at 4° C. After removal of the lysates, the plate was washed three times with wash buffer, and 25 μL of #5656S (Cell signaling; rabbit monoclonal) secondary antibody (diluted to 0.25 μg/mL in 0.05% Tween-20 in blocking buffer) was added to each well and incubated with shaking for 1 Hour at room temperature. Following incubation with the secondary antibody, the wells were rinsed with wash buffer after which 25 μL of goat anti-rabbit SULFO TAG secondary detection antibody (required aspect of the MSD system) (diluted to 0.25 μg/mL in 0.05% Tween-20 in blocking buffer) was added to each well and incubated with shaking for 1 hour at room temperature. After rinsing three times with wash buffer, 150 μL of read buffer T with surfactant (MSD) were added to each empty well, and the plate was imaged on a SI 6000 imager (MSD) according to manufacturers' instructions provided for 96- or 384-well plates.

First: Cc1cn2nc(-c3cc(=O)n4cc(N5CCNC6(CC6)C5)cc(C)c4n3)cc(C)c2n1 [Compound 905, 2-(2,8-dimethylimidazo[1,2-b]pyridazin-6-yl)-9-methyl-7-(4,7-diazaspiro[2.5]octan-7-yl)-4H-pyrido[1,2-a]pyrimidin-4-one]
Second: Cc1cn2nc(-c3cc(=O)n4cc(N5CCNC(C)(C)C5)ccc4n3)cc(C)c2n1 [Compound 899, 2-(2,8-dimethylimidazo[1,2-b]pyridazin-6-yl)-7-(3,3-dimethylpiperazin-1-yl)-4H-pyrido[1,2-a]pyrimidin-4-one]
The IC50 of the first is higher: 1000 to 3000 nM for the first, 100 to 500 nM for the second. The second is the more potent here.

`Cc1cn2nc(-c3cc(=O)n4cc(N5CCN[C@H](C)C5)ccc4n3)cc(C)c2n1` [Compound 886, (R)-2-(2,8-dimethylimidazo[1,2-b]pyridazin-6-yl)-7-(3-methylpiperazin-1-yl)-4H-pyrido[1,2-a]pyrimidin-4-one] was tested, and the IC50 was ≤ 100 nM.
